The values that follow come from the PolyMetriX glass transition set.

In turn, `*OP(=O)(Oc1ccc(OC)cc1)Oc1c(Br)cc(C(c2cc(Br)c(*)c(Br)c2)(C(F)(F)F)C(F)(F)F)cc1Br` (repeat unit) came in with a glass transition temperature of 151.00 °C.
Then `*O[Si](*)(C)C1CC2CC1C1C3CC(CC3C(=O)OC(C)(C)C)C21` (repeat unit), with 90.00 °C.
Next, `*O[Si](*)(C)C1CC2CC1CC2OC(=O)OC(C)(C)C` (repeat unit): 60.00 °C.
Next, `*O[Si](*)(C)C=C` (repeat unit): -129.00 °C; `*O[Si](*)(C)CCCC(=O)OCC` (repeat unit): -82.00 °C.
For the compound `*O[Si](*)(C)CCCC(=O)OCCCC` (repeat unit), the glass transition temperature was -91.00 °C.
Next, `*O[Si](*)(C)CCCC(=O)OCCO` (repeat unit): -58.00 °C.
Next, `*O[Si](*)(C)CCCCCCCC` (repeat unit): -92.00 °C; `*O[Si](*)(C)CCCCCCCCCCC(=O)OCCC(F)(F)C(F)(F)C(F)(F)C(F)(F)C(F)(F)C(F)(F)C(F)(F)C(F)(F)F` (repeat unit): -78.00 °C.
Next, `*O[Si](*)(C)CCCCCCCCCCC(=O)Oc1ccc(-c2ccc(OC(=O)CCCCC(=O)OC3CC(C)CCC3C(C)C)cc2)cc1` (repeat unit): 16.50 °C; `*O[Si](*)(C)CCCCCCCCCCC(=O)Oc1ccc(C(=O)Oc2ccc(-c3ccc(OCC(C)CC)cc3)cc2)cc1` (repeat unit): 26.70 °C; `*O[Si](*)(C)CCCCCCCCCCC(=O)Oc1ccc(C(=O)Oc2ccc(OC(=O)CCCCC(=O)OC3CC(C)CCC3C(C)C)cc2)cc1` (repeat unit): 20.70 °C.
In turn, `*O[Si](*)(C)CCCCCCCCCCC(=O)Oc1ccc(C(=O)Oc2ccc(OC(=O)c3ccc(OCC(C)CC)cc3)cc2)cc1` (repeat unit) yielded a glass transition temperature of 28.50 °C.
Then `*O[Si](*)(C)CCCCCCCCCCC(=O)Oc1ccc2cc(C(=O)OC3CCC4(C)C(=CCC5C4CCC4(C)C(C(C)CCCC(C)C)CCC54)C3)ccc2c1` (repeat unit), with 27.00 °C; and `*O[Si](*)(C)CCCCCCCCCCCOc1ccc(-c2ccc(C(=O)Oc3ccc(C(=O)OC(C)C(=O)OC(C)C(=O)OC(C)C(=O)OCC(C)CC)cc3)cc2)cc1` (repeat unit), with 15.00 °C; and `*O[Si](*)(C)CCCCCCCCCCCOc1ccc(/C=C/c2ccc(OCCCC)cc2)cc1` (repeat unit), with -33.00 °C.
Then `*O[Si](*)(C)CCCCCCCCCCCn1c2ccccc2c2ccccc21` (repeat unit), with -45.00 °C; and `*O[Si](*)(C)CCCCCCCCOc1ccc(C(=O)Oc2ccc(C#N)cc2C)cc1` (repeat unit), with 5.50 °C.
Next, `*O[Si](*)(C)CCCCCCOC(=O)c1cc(OC(=O)c2ccc(OCCOCCOCCOCCOCCOCCOC)cc2)ccc1OC(=O)c1ccc(OCCOCCOCCOCCOCCOCCOC)cc1` (repeat unit): -50.00 °C; `*O[Si](*)(C)CCCCCCOc1ccc(C(=O)Oc2ccc(C#N)cc2C)cc1` (repeat unit): 45.00 °C.
For the compound `*O[Si](*)(C)CCCCCCOc1ccc(C(=O)Oc2ccc(OC)cc2)cc1` (repeat unit), the glass transition temperature was -2.00 °C.
Next, `*O[Si](*)(C)CCCCCCn1c2ccccc2c2ccccc21` (repeat unit): -5.00 °C; `*O[Si](*)(C)CCCCOc1ccc(-c2ccc(C#N)cc2)cc1` (repeat unit): 22.50 °C; `*O[Si](*)(C)CCCOC(=O)c1cc(OC(=O)c2ccc(OCCOCCOCCOCCOC)cc2)ccc1OC(=O)c1ccc(OCCOCCOCCOCCOC)cc1` (repeat unit): -37.00 °C.
Then `*O[Si](*)(C)CCCOc1ccc(/N=N/c2ccc(S(=O)(=O)O)cc2)cc1` (repeat unit), with 9.20 °C; and `*O[Si](*)(C)CCCOc1ccc(C(=O)OC2CCC3(C)C(=CCC4C3CCC3(C)C(C(C)CCCC(C)C)CCC43)C2)cc1` (repeat unit), with 61.10 °C.
Next, `*O[Si](*)(C)CCCOc1ccc(C(=O)OC2CCC3(C)C(=CCC4C3CCC3(C)C(C(C)CCCC(C)C)CCC43)C2)cc1S(=O)(=O)[O][K]` (repeat unit): 112.60 °C; `*O[Si](*)(C)CCCOc1ccc(C(=O)Oc2ccc(-c3ccc(OC(=O)CCCCC(=O)OC4CC(C)CCC4C(C)C)cc3)cc2)cc1` (repeat unit): 56.80 °C.
Compound `*O[Si](*)(C)CCCOc1ccc(C(=O)Oc2ccc(-c3ccc(OC(=O)c4ccc(OCC)cc4)cc3)cc2)cc1` (repeat unit) had a glass transition temperature of 74.60 °C.
Then `*O[Si](*)(C)CCCOc1ccc(N(c2ccc(C)cc2)c2ccc(-c3ccc(N(c4ccccc4)c4ccc(C)cc4)cc3)cc2)cc1` (repeat unit), with 102.00 °C; and `*O[Si](*)(C)CCCn1c2ccccc2c2ccccc21` (repeat unit), with 55.5 °C.
Then `*O[Si](*)(C)CCc1cc(C(=O)Oc2ccc(OCCCC)cc2)ccc1-c1ccc(C(=O)Oc2ccc(OCCCC)cc2)cc1` (repeat unit), with 96.00 °C.
`*O[Si](*)(C)CCc1cc(C(=O)Oc2ccc(OCCCC)cc2)ccc1C(=O)Oc1ccc(OCCCC)cc1` (repeat unit) gave a glass transition temperature of 92.00 °C.
Next, `*O[Si](*)(C)OCCCCCCCCCCCOc1ccc(C2COC(c3ccc(OC)cc3)OC2)cc1` (repeat unit): 44.00 °C; `*O[Si](*)(C)c1ccc(C)cc1` (repeat unit): -17.00 °C; `*O[Si](*)(CCC)CCC` (repeat unit): -77.50 °C.
Next, `*O[Si](*)(CCC)c1ccccc1` (repeat unit): 40.60 °C; `*O[Si](*)(CCCOCCOCCOCCOCCOC)CCCOCCOCCOCCOCCOC` (repeat unit): -69.80 °C.
Take `*O[Si](*)(CCCOCCOCCOCCOCCOCCOCCOC)CCCOCCOCCOCCOCCOCCOCCOC` (repeat unit): the glass transition temperature was -68.90 °C.
Next, `*O[Si](C)(C)O[Si](*)(C)CCCCOc1ccc(-c2ccc(C#N)cc2)cc1` (repeat unit): -5.50 °C; `*O[Si](C)(C)O[Si](C)(C)O[SiH](*)O[Si](C)(C)C=C` (repeat unit): -68.00 °C.
Then `*O[Si](C)(C)O[Si](C)(C)O[Si](C)(C)O[Si](C)(C)O[Si](C)(C)c1ccc(Oc2ccc([Si](*)(C)C)cc2)cc1` (repeat unit), with -65.00 °C; and `*O[Si](C)(C)O[Si](C)(C)O[Si](C)(C)O[Si](C)(C)c1ccc([Si](*)(C)C)cc1` (repeat unit), with -72.00 °C.
Then `*O[Si](C)(C)O[Si](C)(C)O[Si](C)(C)O[Si](C)(c1ccccc1)c1cccc([Si](*)(C)c2ccccc2)c1` (repeat unit), with -42.00 °C; and `*O[Si](C)(C)O[Si](C)(C)O[Si](C)(C)c1ccc(Oc2ccc([Si](*)(C)C)cc2)cc1` (repeat unit), with -37.00 °C.
On to `*O[Si](C)(C)O[Si](C)(C)O[Si](C)(C)c1ccc([Si](*)(C)C)cc1` (repeat unit), for which the glass transition temperature was -62.00 °C.
Next, `*O[Si](C)(C)c1cc(OCCO)c([Si](*)(C)C)cc1OCCO` (repeat unit): 73.00 °C.
Then `*O[Si](C)(C)c1ccc2cc([Si](*)(C)C)ccc2c1` (repeat unit), with 29.00 °C.
In the case of `*O[Si](C)(C)c1ccc2cc3cc([Si](*)(C)C)ccc3cc2c1` (repeat unit), the glass transition temperature is 118.00 °C.
Next, `*O[Si](C)(C)c1ccc2ccc3c([Si](*)(C)C)ccc4ccc1c2c43` (repeat unit): 65.00 °C; `*O[Si](C)(C)c1cccc(C(F)(F)C(F)(F)C(F)(F)c2cccc([Si](*)(C)C)c2)c1` (repeat unit): -8.00 °C; `*O[Si](C)(C)c1cccc([Si](*)(C)C)c1` (repeat unit): -48.00 °C.
Next, `*O[Si](O[Si](C)(C)c1ccc([Si](*)(C)C)cc1)(c1ccccc1)c1ccccc1` (repeat unit): 0.00 °C.
In the case of `*Oc1c(-c2ccccc2)cc(*)cc1-c1ccc(C(C)(C)C)cc1` (repeat unit), the glass transition temperature turned out to be 240.00 °C.
Then `*Oc1c(-c2ccccc2)cc(*)cc1-c1ccc(C)cc1` (repeat unit), with 218.00 °C.
Then `*Oc1c(-c2ccccc2)cc(*)cc1-c1cccc(C)c1` (repeat unit), with 219.00 °C.
Next, `*Oc1c(Br)cc(*)cc1Br` (repeat unit): 196.00 °C; `*Oc1c(Br)cc(C2(c3cc(Br)c(OC(*)=O)c(Br)c3)CC3CCC2C3)cc1Br` (repeat unit): 283.00 °C.
The compound `*Oc1c(C(C)C)cc(*)cc1C(C)C` (repeat unit) returned a glass transition temperature of 152.40 °C.
In turn, `*Oc1c(C)cc(*)cc1C` (repeat unit) returned a glass transition temperature of 212.00 °C.
Next, `*Oc1ccc(C(=O)c2ccc(Oc3ccc(C(=O)c4c(C(=O)c5ccc(*)cc5)c(-c5ccccc5)c(-c5ccc6ccccc6c5)c(-c5ccc6ccccc6c5)c4-c4ccccc4)cc3)cc2)cc1` (repeat unit): 290.00 °C.
Then `*Oc1ccc(C(=O)c2ccc(Oc3ccc(C(c4ccc(*)cc4)(C(F)(F)F)C(F)(F)F)cc3)cc2)c2ccccc12` (repeat unit), with 190.00 °C; and `*Oc1ccc(C(c2ccc(Oc3ccc(C(=O)c4ccc(*)cc4)cc3)cc2)(C(F)(F)F)C(F)(F)F)cc1` (repeat unit), with 175.00 °C; and `*Oc1ccc(S(=O)(=O)c2ccc(Oc3c(C)cc(C(c4cc(C)c(*)c(C)c4)(C(F)(F)F)C(F)(F)F)cc3C)cc2C(OC)(C(F)(F)F)C(F)(F)F)c(C(OC)(C(F)(F)F)C(F)(F)F)c1` (repeat unit), with 163.00 °C.
